We go through 16 molecules from US20250032484A1, “THERAPEUTIC TARGETS AND AGENTS FOR THE TREATMENT OF POSTTRAUMATIC STRESS DISORDER” (priority 2021, published 2025).

This experiment relates to VA patients with PTSD (PTSD symptoms, PTSD Checklist). Put plainly: TreeScan nested case-control study of medications associated with PTSD symptom improvement (PTSD Checklist) in VA records. Format: in vivo, human. To be noted: for association with PTSD symptom improvement, in words (statistical alert at P<0.1): overall sample. The procedure: Study Sample and Data Sources. A nested case-control study was conducted within a previously established retrospective cohort that included all VA users with a clinical diagnosis of PTSD (International Classification of Diseases [ICD]-9:309.81, ICD-10: F43.1x) from Oct. 1, 1999 through Sep. 30, 2019 (Shiner et al. (2021) J Eval Clin Pract.). The data source contains information on services use, clinical diagnoses, filled prescriptions, and patient-reported outcome measures (PROMs) for PTSD using the PTSD Checklist (PCL) for these patients. This study was approved by the Veterans Institutional Review Board of Northern New England.
The goal of the current study was to evaluate any filled medications associated with PTSD symptom improvement, and as such, the analytic sample for this study included only patients with PROMs that were at least 30 days apart. 30 days was selected to allow for medications to be taken for at least one full course (typically 28 days). Patients with PROMs more than 365 days apart were excluded as these are unlikely to provide an accurate assessment of PTSD symptom change between the two time points. For patients who had two overlapping PROM intervals, those closest to 84 days in length were chosen to emulate typical PTSD medication efficacy trials (Watts et al. (2013) J Clin Psychiatry. 74: e541-550). When a patient had two or more overlapping intervals at exactly 84 days, the historically earliest interval was chosen. If patients had multiple non-overlapping intervals, all were included. Patients who met the selection criteria for PTSD in the original cohort and had at least one PROM pair where they started a new medication (defined below) constituted the overall analytic sample for the current study.
PTSD Improvement Cases and No Improvement Controls. In order to maximize the number of patients with available symptomatic measurement, two different versions of a PROM for PTSD were integrated into a single dataset (Shiner et al. (2021) J Eval Clin Pract.). The two PROMs were the PCL versions aligned to the Diagnostic and Statistical Manual of Mental Disorders (DSM), version IV and Version 5 (APA (2000): Diagnostic and Statistical Manual of Mental Disorders. 4th Edition. Text Revision: DSM-IV-TR. Arlington, VA: American Psychiatric Association: APA (2013): Diagnostic and Statistical Manual of Mental Disorders: Fifth Edition (DSM-5). Washington, D.C.: American Psychiatric Association), which will heretofore be called the PCL-IV and the PCL-5 (Blevins et al. (2015) J Trauma Stress. 28:489-498: Weathers et al. (1993) Trauma. Coping. and Adaptation. San Antonio, Texas: International Society for Traumatic Stress Studies, 9th Annual Meeting). […] A validated crosswalk (ICC=0.96) was used to convert all values to PCL-5 scoring (Moshier et al. (Under review): An empirical crosswalk for the PTSD Checklist: Translating DSM-IV to DSM-5). PTSD improvement cases were defined by a clinically meaningful improvement, which was a decrease of 15 points or more between assessment points (Lee et al. (2019) Reliable Change Index and Clinically Significant Margins for the CAPS-5 and PCL-5 among Veterans. Boston, MA: International Society for Traumatic Stress Studies, 35th Annual Meeting). […] Thus, the no PTSD improvement control group was defined as worsening of symptoms or reductions of up to 7 points on the PCL. Improvements between 8 and 14 points were of uncertain clinical significance and were therefore excluded.
Identification and Classification of New Medications. The predictors of interest were initiation of medications for any indication. Candidate agents included those that were started in the interval between PCL pairs and continued for at least a 28-day supply. When patients started multiple medications between a given PCL pair, they contributed information for each of the medications in the tree.

The mark [1] stands for this setting: all patients in the overall sample.
[2] abbreviates: baseline PCL score of 38 or higher and PTSD diagnosis within 30 days.
Setting [3] is: case = improved by 15 or more points on PTSD Checklist, all patients in the overall sample.
The mark [4] stands for this setting: improvement in PTSD, all patients in the overall sample.
The mark [5] stands for this setting: overall sample without any concurrent evidence-based treatment.
[6] abbreviates: baseline PCL 38 or higher, PTSD diagnosis within 30 days, without any concurrent evidence-based treatment.

In the case of `Cc1ncc(C[n+]2csc(CCO)c2C)c(N)n1` [Thiamine], the “EXP = Expected Cases” value stood at 351 under setting [1], 304 under setting [2] and 106 under setting [5]. The “O:E = Observed Cases over Expected Cases” value is, setting by setting: under setting [2], 1.24; under setting [4], 1.27; under setting [5], 1.38. Moreover, the “OBS = Observed Cases” value was determined as 377 under setting [2], 444 under setting [3] and 146 under setting [5].

Consider `CN(C)CCCC1(c2ccc(F)cc2)OCc2cc(C#N)ccc21` (stereo not drawn) [Citalopram], for which the “association with PTSD symptom improvement, in words (statistical alert at P<0.1)” value (“association … (statistical alert at P<0.1)” for short) is “similarly small associations”. Further, the “EXP = Expected Cases” value under setting [1] came to 1508. Moreover, under setting [6], the “EXP = Expected Cases” value came out at 632, the “O:E = Observed Cases over Expected Cases” value came to 1.25 and the “OBS = Observed Cases” value is 785. Besides, under setting [2], the “EXP = Expected Cases” value was 1202, the “O:E = Observed Cases over Expected Cases” value was determined as 1.10 and the “OBS = Observed Cases” value is reported as 1315. Besides, under setting [3], the “OBS = Observed Cases” value amounted to 1653. Also, the “O:E = Observed Cases over Expected Cases” value under setting [4] came to 1.10. Besides, under setting [5], the “EXP = Expected Cases” value is reported as 814, the “O:E = Observed Cases over Expected Cases” value came to 1.28 and the “OBS = Observed Cases” value was 1039.

`COC(=O)N[C@H](C(=O)N1CC2(CC2)C[C@H]1c1nc(-c2ccc3c(c2)C(F)(F)c2cc(-c4ccc5nc([C@@H]6[C@H]7CC[C@H](C7)N6C(=O)[C@@H](NC(=O)OC)C(C)C)[nH]c5c4)ccc2-3)c[nH]1)C(C)C` [ledipasvir]: the “association … (statistical alert at P<0.1)” value is listed as “Neither sofosbuvir nor ledipasvir were associated with a significantly higher than expected improvement”.

Consider `CN1CCN2c3ncccc3Cc3ccccc3C2C1` (stereo not drawn) [Mirtazapine], for which, under setting [5], the “EXP = Expected Cases” value is 755, the “O:E = Observed Cases over Expected Cases” value came to 1.13 and the “OBS = Observed Cases” value was 849.

Consider Fluoxetine, for which the “association … (statistical alert at P<0.1)” value was “similarly small associations”. For the same molecule, the “EXP = Expected Cases” value under setting [1] is reported as 1571. Besides, the “OBS = Observed Cases” value under setting [3] is on record as 1716. In addition, the “O:E = Observed Cases over Expected Cases” value under setting [4] was 1.09.

In the case of Sertraline, the “EXP = Expected Cases” value is, setting by setting: under setting [1], 4025; under setting [2], 3434. In addition, the “OBS = Observed Cases” value is, setting by setting: under setting [2], 3909; under setting [3], 4659.

As to `O=c1n(CCCN2CCN(c3cccc(Cl)c3)CC2)nc2ccccn12` [Trazodone], the “association … (statistical alert at P<0.1)” value is “similarly small associations”. Under setting [1], the “EXP = Expected Cases” value is 4061. For the same molecule, under setting [6], the “EXP = Expected Cases” value was 893, the “O:E = Observed Cases over Expected Cases” value is on record as 1.12 and the “OBS = Observed Cases” value was 992. In addition, under setting [2], the “EXP = Expected Cases” value is given as 3396, the “O:E = Observed Cases over Expected Cases” value stood at 1.07 and the “OBS = Observed Cases” value amounted to 3610. Moreover, the “OBS = Observed Cases” value under setting [3] is on record as 4308. In addition, the “O:E = Observed Cases over Expected Cases” value under setting [4] is listed as 1.06. Also, under setting [5], the “EXP = Expected Cases” value is listed as 1157, the “O:E = Observed Cases over Expected Cases” value is 1.1 and the “OBS = Observed Cases” value worked out at 1272.

As for Naloxone, the “EXP = Expected Cases” value under setting [1] was 312 and the “EXP = Expected Cases” value under setting [2] amounted to 279. The “O:E = Observed Cases over Expected Cases” value under setting [2] was 1.35 and the “O:E = Observed Cases over Expected Cases” value under setting [4] was 1.37. Besides, the “OBS = Observed Cases” value amounted to 376 under setting [2] and 426 under setting [3].

Take `CN(C)CCC[C@@]1(c2ccc(F)cc2)OCc2cc(C#N)ccc21` [Escitalopram]: under setting [5], the “EXP = Expected Cases” value stood at 474 and the “OBS = Observed Cases” value is recorded as 558.

In the case of `COC[C@H]1C[C@@H](c2ncc(-c3ccc4c(c3)COc3cc5c(ccc6[nH]c([C@@H]7CC[C@H](C)N7C(=O)[C@@H](NC(=O)OC)C(C)C)nc65)cc3-4)[nH]2)N(C(=O)[C@H](NC(=O)OC)c2ccccc2)C1` [Velpatasvir, velpatasvir], the “EXP = Expected Cases” value under setting [1] came out at 11 and the “EXP = Expected Cases” value under setting [2] amounted to 10. Also, the “O:E = Observed Cases over Expected Cases” value under setting [2] is recorded as 2.17; the “O:E = Observed Cases over Expected Cases” value under setting [4] came out at 2.10; the “O:E = Observed Cases over Expected Cases” value (improvement in PTSD, all patients in the overall sample, listed as velpatasvir) amounted to 2.10. The “OBS = Observed Cases” value reads like this: under setting [2], 21; under setting [3], 24.

Turning to `[Li]` [Lithium], the “association … (statistical alert at P<0.1)” value was “similarly small associations”. Besides, the “EXP = Expected Cases” value under setting [1] came out at 246. In addition, the “OBS = Observed Cases” value under setting [3] was 304. The “O:E = Observed Cases over Expected Cases” value under setting [4] is listed as 1.24. Under setting [5], the “EXP = Expected Cases” value is reported as 92, the “O:E = Observed Cases over Expected Cases” value is 1.38 and the “OBS = Observed Cases” value worked out at 127.

On to `CN1CCCC1c1cccnc1` (stereo not drawn) [Nicotine], for which the “EXP = Expected Cases” value is on record as 2109 under setting [1], 522 under setting [6] and 1736 under setting [2]. In addition, the “O:E = Observed Cases over Expected Cases” value by setting is: under setting [6], 1.17; under setting [4], 1.13. Further, the “OBS = Observed Cases” value under setting [6] turned out to be 610, the “OBS = Observed Cases” value under setting [2] is given as 2007 and the “OBS = Observed Cases” value under setting [3] is on record as 2371.

On to `Nc1nc2ncc(CNc3ccc(C(=O)N[C@@H](CCC(=O)O)C(=O)O)cc3)nc2c(=O)[nH]1` [Folic Acid], for which the “EXP = Expected Cases” value by setting is: under setting [1], 445; under setting [2], 391; under setting [5], 134. In addition, the “O:E = Observed Cases over Expected Cases” value worked out at 1.20 under setting [2], 1.27 under setting [4] and 1.38 under setting [5]. Moreover, the “OBS = Observed Cases” value worked out at 469 under setting [2], 567 under setting [3] and 185 under setting [5].

Consider Quetiapine, for which, under setting [5], the “EXP = Expected Cases” value is 371, the “O:E = Observed Cases over Expected Cases” value was found to be 1.24 and the “OBS = Observed Cases” value is on record as 460.

Take Cholecalciferol: the “EXP = Expected Cases” value under setting [1] is listed as 2470 and the “EXP = Expected Cases” value under setting [2] stood at 2070. Moreover, the “O:E = Observed Cases over Expected Cases” value amounted to 1.08 under setting [2] and 1.07 under setting [4]. Further, the “OBS = Observed Cases” value is, setting by setting: under setting [2], 2238; under setting [3], 2647.

As for `COC(=O)N[C@H](C(=O)N1CCC[C@H]1c1nc2cc(F)c([C@H]3CC[C@H](c4cc5[nH]c([C@@H]6CCCN6C(=O)[C@@H](NC(=O)OC)[C@@H](C)OC)nc5cc4F)N3c3cc(F)c(N4CCC(c5ccc(F)cc5)CC4)c(F)c3)cc2[nH]1)[C@@H](C)OC` [Pibrentasvir, pibrentasvir], the “EXP = Expected Cases” value reads like this: under setting [1], 16; under setting [6], 4; under setting [2], 14; under setting [5], 5. Further, the “O:E = Observed Cases over Expected Cases” value under setting [6] was 3.52; the “O:E = Observed Cases over Expected Cases” value under setting [2] came to 2.21; the “O:E = Observed Cases over Expected Cases” value under setting [4] was found to be 2.09; the “O:E = Observed Cases over Expected Cases” value (improvement in PTSD, all patients in the overall sample, listed as pibrentasvir) worked out at 2.09; the “O:E = Observed Cases over Expected Cases” value under setting [5] stood at 3.09. The “OBS = Observed Cases” value by setting is: under setting [6], 14; under setting [2], 30; under setting [3], 33; under setting [5], 14.
